Patent US7970552B1, “Diagnostic system for selecting nutrition and pharmacological products for animals” (priority 2008, dated 2011)

System: cartilage cells of individual affected unhealthy dogs
Assay: Cartilage cells of affected dogs cultured in vitro with 0 or 60 mg/l curcumin or andrographolide for 6 hours, microarray fold change in gene expression
Format: cell-based, German Shepherd dogs
Details: for Fold change of gene expression, mean: 60 mg/l vs 0, 6 hours; for Net effect of the NBC on fold change, mean: net of fold change in unhealthy dogs
Experimental: Total RNA of cells was extracted using phenol/guanidine HCI reagents (Trizol, Invitrogen). RNA quality integrity was analysed using the Agilent 2100 Bioanalyser (Agilent Technologies) of the sample. The samples determined to have no, or minimal, loss of integrity and thus were considered suitable for use in experiments. mRNA was amplified for each sample, starting with 500 ng total RNA using a commercially available kit (Ambion T7 MEGAscript high yield transcription kit, Ambion). The mRNA was quantified using a spectrophotometer. mRNA was directly reverse transcribed to cDNA from […] using the Superscript indirect cDNA labeling Core kit (Invitrogen, Milan, Italy).
Two micrograms of cDNA were labelled with Cyanine-3dCTP (Cy3) or Cyanine-5dCTP (Cy5) fluorochromes using the cDNA labeling purification module kit (Invitrogen, Milan, Italy). Samples were hybridised to a canine specific, whole genome 44k spot 60mer oligonucleotide (Agilent Technologies). The labelled cDNA was appropriately coupled and used for competitive hybridization on the same microarray at 42° C. for 16 h. Fluorescence incorporation was determined using a spectrophotometer. The relative intensity of labelled cDNA in was acquired with ScanArray LITE scanner (PerkinElmer Life Sciences, Inc).
Expression data were then exported into Excel 2007 and processed with SAM software; comparison between groups was achieved using paired student's t tests. […] Correction for multiple hypothesis testing was performed using the false discovery rate (FDR).
Searching within the nutrient data set for biologically active nutrients with anti-arthritic and anti-inflammatory properties identified curcumin and androgropholide as the appropriated compositions. The cartilage cells of individual affected unhealthy dogs were cultured in vitro with 0, or 60 mg/l of curcumin or androgropholide for 6 hours. At the end of the incubation, these cartilage cells from individual affected dogs were washed and used for RNA extraction. For the microarray analysis, co-hybridisation of the RNA from 0 and 60 mg/l was conducted, using the material and the methods described previously.
The table below reports the mean fold change in gene expression of two biologically active nutrients, namely curcumin and andrographolide. […] The dose to be added to the food or the nutrient composition is computed using literature data, which indicates a dose of 4 mg/kg body weight for either curcumin or andrographolide.

[1] = cartilage cells of affected dogs, 60 mg/l, 6 hours

C=C1CC[C@@H]2[C@](C)(CO)[C@H](O)CC[C@@]2(C)[C@@H]1C/C=C1/C(=O)OC[C@H]1O [Androgrpholide]
Fold change of gene expression, mean (gene ACTB): −1.0 | Net effect of the NBC on fold change, mean (gene ACTB, 60 mg/l, 6 hours): 2.8 | Fold change of gene expression, mean (gene ACTR3): 1.0 | Net effect of the NBC on fold change, mean (gene ACTR3, 60 mg/l, 6 hours): 1.3 | Fold change of gene expression, mean (gene ADK): 0.0 | Net effect of the NBC on fold change, mean (gene ADK, 60 mg/l, 6 hours): 3.6 | Fold change of gene expression, mean (gene ANKRD10): 0.0 | Net effect of the NBC on fold change, mean (gene ANKRD10, 60 mg/l, 6 hours): 5.2 | Fold change of gene expression, mean (gene CAV1): 0.0 | Net effect of the NBC on fold change, mean (gene CAV1, 60 mg/l, 6 hours): 4.8 | Fold change of gene expression, mean (gene CDH11): −1.0 | Net effect of the NBC on fold change, mean (gene CDH11, 60 mg/l, 6 hours): 5.9 | Fold change of gene expression, mean (gene COL3A1): −2.0 | Net effect of the NBC on fold change, mean (gene COL3A1, 60 mg/l, 6 hours): 7.5 | Fold change of gene expression, mean (gene COX1): 0.0 | Net effect of the NBC on fold change, mean (gene COX1, 60 mg/l, 6 hours): 0.8 | Fold change of gene expression, mean (gene COX2): 0.0 | Net effect of the NBC on fold change, mean (gene COX2, 60 mg/l, 6 hours): 23.0 | Fold change of gene expression, mean (gene IGFBP7): −2.0 | Net effect of the NBC on fold change, mean (gene IGFBP7, 60 mg/l, 6 hours): 1.7 | Fold change of gene expression, mean (gene IL2): −6.0 | Net effect of the NBC on fold change, mean (gene IL2, 60 mg/l, 6 hours): −3.0 | Fold change of gene expression, mean (gene MMP2): −5.0 | Net effect of the NBC on fold change, mean (gene MMP2, 60 mg/l, 6 hours): 5.0 | Fold change of gene expression, mean (gene NOS2): −6.0 | Net effect of the NBC on fold change, mean (gene NOS2, 60 mg/l, 6 hours): −5.8 | Fold change of gene expression, mean (gene PTGS-2): −5.0 | Net effect of the NBC on fold change, mean (gene PTGS-2, 60 mg/l, 6 hours): −3.8 | Fold change of gene expression, mean (gene SPARC): 0.0 | Net effect of the NBC on fold change, mean (gene SPARC, 60 mg/l, 6 hours): 6.3 | Fold change of gene expression, mean (gene STMN1): 0.0 | Net effect of the NBC on fold change, mean (gene STMN1, 60 mg/l, 6 hours): 6.2 | Fold change of gene expression, mean (gene TIMP1): 0.0 | Net effect of the NBC on fold change, mean (gene TIMP1, 60 mg/l, 6 hours): 6.2 | Fold change of gene expression, mean (gene TIMP2): 0.0 | Net effect of the NBC on fold change, mean (gene TIMP2, 60 mg/l, 6 hours): 2.0 | Fold change of gene expression, mean (gene TNF-a): −8.0 | Net effect of the NBC on fold change, mean (gene TNF-a, 60 mg/l, 6 hours): 2.0 | Fold change of gene expression, mean (gene TUBA): 0.0 | Net effect of the NBC on fold change, mean (gene TUBA, 60 mg/l, 6 hours): 4.7 | Fold change of gene expression, mean (gene TUBB): 0.0 | Net effect of the NBC on fold change, mean (gene TUBB, 60 mg/l, 6 hours): 4.8

C=C1CC[C@@H]2[C@](C)(CO)[C@H](O)CC[C@@]2(C)[C@@H]1C/C=C1/C(=O)OC[C@H]1O [andrographolide]
Anti-inflammatory activity [1]: possesses an anti-inflammatory activity | Match with the regulation of the genes up- or down-regulated in affected unhealthy cartilage cells [1]: does not exactly match the regulation of all the genes

COc1cc(/C=C/C(=O)CC(=O)/C=C/c2ccc(O)c(OC)c2)ccc1O [curcumin]
Match with the regulation of the genes up- or down-regulated in affected unhealthy cartilage cells [1]: completely satisfies these requirements
